Reference: ChEMBL document CHEMBL5154798, “Structure-based discovery of receptor tyrosine kinase AXL degraders with excellent anti-tumor activity by selectively degrading AXL and inducing methuosis” (Eur J Med Chem, 2022)
pIC50: −log10 of the molar value. One block for each compound: values may come before it.

Assays:
[1] = Cytotoxicity against human MCF-10A cells after 72 hrs by MTT assay; type: toxicity, cell-based
[2] = Cytotoxicity against human GES1 cells after 72 hrs by MTT assay; type: toxicity, cell-based
[3] = test system: MDA-MB-231; experiment: Antiproliferative activity against human MDA-MB-231 cells highly expressing AXL after 72 hrs by MTT assay; conditions: MDA-MB-231, 72 h
[4] = test system: 4T1; experiment: Antiproliferative activity against mouse 4T1 cells highly expressing AXL after 72 hrs by MTT assay; conditions: 4T1, 72 h
[5] = target: T1, Tyrosine-protein kinase receptor UFO (Homo sapiens, UniProt P30530); experiment: Inhibition of AXL (unknown origin) measured by FRET assay
T1 sequence (P30530 whole entry): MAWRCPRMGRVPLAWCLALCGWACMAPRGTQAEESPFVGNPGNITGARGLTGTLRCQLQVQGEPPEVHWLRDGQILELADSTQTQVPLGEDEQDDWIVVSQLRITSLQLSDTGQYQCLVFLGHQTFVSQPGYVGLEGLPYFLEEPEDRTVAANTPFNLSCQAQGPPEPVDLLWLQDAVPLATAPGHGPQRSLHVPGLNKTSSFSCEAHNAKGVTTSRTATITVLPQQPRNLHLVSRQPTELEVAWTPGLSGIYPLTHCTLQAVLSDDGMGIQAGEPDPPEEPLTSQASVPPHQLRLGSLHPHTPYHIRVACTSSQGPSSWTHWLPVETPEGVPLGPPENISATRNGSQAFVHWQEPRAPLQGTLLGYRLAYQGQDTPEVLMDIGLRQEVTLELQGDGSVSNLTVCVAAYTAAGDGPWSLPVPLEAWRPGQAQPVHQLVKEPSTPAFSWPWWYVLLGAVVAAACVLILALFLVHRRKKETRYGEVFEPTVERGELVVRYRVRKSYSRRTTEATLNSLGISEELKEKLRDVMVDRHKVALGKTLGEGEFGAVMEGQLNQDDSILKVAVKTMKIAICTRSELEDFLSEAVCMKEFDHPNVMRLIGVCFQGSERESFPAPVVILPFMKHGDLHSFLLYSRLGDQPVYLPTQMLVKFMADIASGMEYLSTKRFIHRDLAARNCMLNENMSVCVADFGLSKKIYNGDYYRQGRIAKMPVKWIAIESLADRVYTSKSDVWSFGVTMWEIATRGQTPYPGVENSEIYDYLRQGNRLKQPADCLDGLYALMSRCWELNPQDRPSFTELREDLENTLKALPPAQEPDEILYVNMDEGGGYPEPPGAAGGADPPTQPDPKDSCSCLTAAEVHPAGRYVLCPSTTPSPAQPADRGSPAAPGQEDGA

Structure (SMILES): Nc1nc(NCCNC(=O)CCCCCCNc2cccc3c2CN(C2CCC(=O)NC2=O)C3=O)nn1-c1cc2c(nn1)-c1ccccc1CCC2 (centres undefined)
IC50 at 72 h [1]: > 60 µM | IC50 at 72 h [2]: > 60 µM

Structure (SMILES): Nc1nc(NCCNC(=O)CCCCCCCNc2cccc3c2CN(C2CCC(=O)NC2=O)C3=O)nn1-c1ccc(-c2ccccc2)nn1 (centres undefined)
pIC50 [3]: 4.46 | pIC50 [4]: 4.71 | IC50 at 72 h [1]: > 60 µM | IC50 at 72 h [2]: > 60 µM

Structure (SMILES): Nc1nc(Nc2ccc(CNC(=O)CCCNc3cccc4c3CN(C3CCC(=O)NC3=O)C4=O)cc2)nn1-c1cc2c(nn1)-c1ccccc1CCC2 (centres undefined)
pIC50 [3]: 4.38 | pIC50 [4]: 4.46 | IC50 at 72 h [1]: > 60 µM | IC50 at 72 h [2]: > 60 µM

Structure (SMILES): Nc1nc(Nc2ccc(CNC(=O)CCCCCCNc3cccc4c3CN(C3CCC(=O)NC3=O)C4=O)cc2)nn1-c1cc2c(nn1)-c1ccccc1CCC2 (centres undefined)
pIC50 [3]: 4.53 | pIC50 [4]: 2.65 | IC50 at 72 h [1]: > 60 µM | IC50 at 72 h [2]: > 60 µM

Structure (SMILES): Nc1nc(Nc2ccc(CNC(=O)CCCCCCCNc3cccc4c3CN(C3CCC(=O)NC3=O)C4=O)cc2)nn1-c1cc2c(nn1)-c1ccccc1CCC2 (centres undefined)
pIC50 [3]: 4.56 | pIC50 [4]: 4.68 | IC50 at 72 h [1]: > 60 µM | IC50 at 72 h [2]: > 60 µM

Structure (SMILES): Nc1nc(Nc2ccc(CNC(=O)CCCCNc3cccc4c3CN(C3CCC(=O)NC3=O)C4=O)cc2)nn1-c1cc2c(nn1)-c1ccccc1CCC2 (centres undefined)
pIC50 [3]: 4.41 | pIC50 [4]: 4.38 | IC50 at 72 h [1]: > 60 µM | IC50 at 72 h [2]: > 60 µM

Second part, led by results:

pIC50 [3]: < 4.22 | pIC50 [4]: 4.43
Structure (SMILES): Nc1nc(NCCNC(=O)CCCCCNc2cccc3c2CN(C2CCC(=O)NC2=O)C3=O)nn1-c1cc2c(nn1)-c1ccccc1CCC2 (centres undefined)
IC50 at 72 h [1]: > 60 µM | IC50 at 72 h [2]: > 60 µM

pIC50 [5]: < 4.22 | pIC50 [3]: < 4.22 | pIC50 [4]: < 4.22
Structure (SMILES): Nc1nc(NCCNC(=O)CCCCCCNc2cccc3c2CN(C2CCC(=O)NC2=O)C3=O)nn1-c1ccc(-c2ccccc2)nn1 (centres undefined)
IC50 at 72 h [1]: > 60 µM | IC50 at 72 h [2]: > 60 µM

pIC50 [3]: 4.54 | pIC50 [4]: 4.61
Structure (SMILES): Nc1nc(Nc2ccc(CNC(=O)CCCCCCNc3cccc4c3CN(C3CCC(=O)NC3=O)C4=O)cc2)nn1-c1ccc(-c2ccccc2)nn1 (centres undefined)
IC50 at 72 h [1]: > 60 µM | IC50 at 72 h [2]: > 60 µM

pIC50 [3]: < 4.22 | pIC50 [4]: 4.57
Structure (SMILES): Nc1nc(NCCNC(=O)CCCCCCCNc2cccc3c2CN(C2CCC(=O)NC2=O)C3=O)nn1-c1cc2c(nn1)-c1ccccc1CCC2 (centres undefined)
IC50 at 72 h [1]: > 60 µM | IC50 at 72 h [2]: > 60 µM
